Test results: article PMC13099959, “Context-dependent activation and evolutionary buffering of a mating pheromone in fission yeast” (Communications Biology, 2026)
No end group written: not given here. Far = not defined here

What was measured:
[1] = test system: S. pombe h90 strains (mating and sporulation); assay: Frequency of zygote formation (microscopy-based mating frequency); format: cell-based, Schizosaccharomyces pombe
Protocol: Cells were pre-cultured on YEA medium at 30 °C overnight, washed with 1 mL sterilized water (10,000 rpm, 3 min, 4 °C), and adjusted to an OD600 of 5.0. Aliquots (30 µL) were spotted on YEA, MEA, SSA, or fruit/vegetable juice media (grape, orange, apple, vegetable) and incubated at 30 °C for 48 h. After 48 h, cells were harvested and examined using a differential interference contrast microscopy (BX53, Olympus, Tokyo, Japan) with the UPlanSApo 60×/1.35 NA oil-immersion objective, ORCA-spark camera (Hamamatsu Photonics, Hamamatsu, Japan), and CellSens software. Nine random fields were imaged per plate. Mating rates were calculated as in Seike et al.[11] using the equation: Mating rate(%)=2Z+2A+0.5S×100/V+2Z+2A+0.5S where V, Z, A, and S represent vegetative cells, zygotes, asci, and spores, respectively. Data are reported as the mean ±s.d.
All statistical analyses treated biological replicates (n = 3) as the unit of replication. Unless stated otherwise, values are reported as mean ± s.d., tests were two-sided, and no data were excluded. For two-group comparisons we used Welch’s t test (unequal variances). Significance in figures is denoted as p < 0.05, p < 0.01, and p < 0.001. […] For microscopy-based mating assays, nine random fields were scored per plate; field values were averaged within each biological replicate to avoid pseudoreplication. […] Analyses were performed in Python (pandas, numpy, math); plots were generated using matplotlib and seaborn.

[2] = target: T1, M-factor receptor Map3 (Schizosaccharomyces pombe, UniProt P31397); assay: In vitro M-factor activity assay using a map4 promoter–lacZ fusion (β-galactosidase); format: cell-based; conditions: synthetic peptide 10 µM, map4-lacZ reporter strain, nitrogen-free SSL medium, pH 5.5 or 7.0
T1 construct: Tester strain TS472 was inoculated into 5 mL SSL + N medium; endogenous in cells; host or cells: S. pombe tester strain TS472 (map4 promoter-lacZ reporter)
T1 sequence (P31397 1-365): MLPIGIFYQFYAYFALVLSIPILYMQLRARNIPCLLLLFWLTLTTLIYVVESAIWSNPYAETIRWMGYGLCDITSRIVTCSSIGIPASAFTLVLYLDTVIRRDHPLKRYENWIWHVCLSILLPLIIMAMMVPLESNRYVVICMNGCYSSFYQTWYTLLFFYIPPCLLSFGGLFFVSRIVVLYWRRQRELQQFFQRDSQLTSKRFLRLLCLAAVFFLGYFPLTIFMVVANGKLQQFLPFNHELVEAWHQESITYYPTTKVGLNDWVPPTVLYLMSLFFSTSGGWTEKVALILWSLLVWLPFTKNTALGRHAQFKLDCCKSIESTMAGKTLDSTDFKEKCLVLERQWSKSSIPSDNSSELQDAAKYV
Protocol: β-galactosidase activity was measured to evaluate activation of the M-factor receptor Map3 using synthetic M-factor peptides, following a previously described method[22]. Tester strain TS472 was inoculated into 5 mL SSL + N medium (SSA without agar) at an initial OD600 of 0.1 and cultured at 30 °C for 20 h. Cells were washed three times with SSL–N medium (lacking 0.5 g/L aspartic acid) and resuspended in SSL–N at varying pH values (adjusted with HCl or NaOH) to OD600 = 2.0.
Thereafter, cells were washed and resuspended in Z-buffer (60 mM Na2HPO4, 40 mM NaH2PO4, 10 mM KCl, 1 mM MgSO4·7H2O, and 50 mM β-mercaptoethanol; pH 7.0) to OD600 = 5.0. For each replicate (n = 3), 200 µL of cell suspension was mixed with 600 µL Z-buffer, 15 µL chloroform, and 12 µL 0.1% SDS, vortexed, and incubated at 30 °C for 5 min. Reactions were initiated with 160 µL o-nitrophenyl-β-D-galactopyranoside (ONPG; 4 mg/mL in Z-buffer), and both start and end times were recorded. After incubation at 30 °C, reactions were terminated with 400 µL 1 M Na2CO3, centrifuged (13,000 rpm, 3 min, 4 °C), and 200 µL supernatant was diluted into 1 mL 0.33 M Na2CO3. Absorbance at 420 nm (OD420) was measured to calculate Miller units. Miller units=(OD420×1000)/(V×t×OD600) where V is reaction volume (mL) and t is reaction time (minute). Data are reported as the mean ± s.d. […]

| pH dependence of β-galactosidase activity (Map3 activation) [2] | Substance | Mating competence at pH 5.5 ([1]; SSA pH 5.5, 48 h) | Cells forming mature asci ([1]; SSA pH 7.5–8.5, 48 h) | Effect on mating in background with intact mfm2+ and mfm3+ genes ([1]; mfm1-P36H in h90 mfm2+ mfm3+ background, SSA pH 5.5 and pH 7.0) |
| --- | --- | --- | --- | --- |
|  | P6H: M-factor single-amino acid variant; also tested as synthetic peptide (Eurofins) (YTPKVHYMC(Far)-OMe; ends and bridges not checked; UniProt P34068 31-39, looked up, variant P36H) | virtually sterile | approximately 50% | does not exert a dominant-negative effect on mating |
| higher activity at acidic pH | T2Q: M-factor single-amino acid variant; also tested as synthetic peptide (Eurofins) (YQPKVPYMC(Far)-OMe; ends and bridges not checked; UniProt P34068 31-39, looked up, variant T32Q) |  |  |  |
